{"source": "patent US7256215B2", "about": "“Crystals of 5-hydroxycarbamimidoyl-2-hydroxybenzenesulfonamide derivative” (Kissei Pharmaceutical Co., Ltd., priority 2002, dated 2007)", "key": {"[1]": {"assay": "Storage stability test (residual rate by HPLC)", "type": "physicochemical", "details": "hydrochloride; for Residual Rate (%): storage at 40° C./90% relative humidity for two months, HPLC; for Storage stability (in words): stored for a long period", "protocol": "(Storage Stability Test) Stability test was carried out under a storage condition of 40° C./90% relative humidity for two months for test substances. The residual rates of test substances were determined by HPLC according to the following conditions. HPLC Condition: • Detection wavelength; 225 nm • Column; CAPCELL PAK C18, MG 5 μm, 3.0 mm I.D.×250 mm • Column temperature; 35° C. • Mobile phase; • 0.02 mol/L phosphate buffer (pH 6.0): acetonitrile mixed solvent • 0→20 min; 42:58 • 20→40 min; 42:58→70:30 • 40→45 min; 70:30 • Flow rate; 0.5 mL/min"}, "[2]": {"assay": "Oral bioavailability (statement, no method given)", "type": "in vivo"}, "[3]": {"assay": "Storage under ordinary conditions, retention of crystalline form", "type": "physicochemical", "details": "25° C./60% relative humidity, long period"}, "[4]": {"target": "T1, activated blood coagulation factor X (Homo sapiens, UniProt P00742)", "assay": "Activated blood coagulation factor X inhibitory activity in plasma of orally dosed rats", "type": "in vivo, Male Wistar rats", "set-up": "purchased Calbiochem", "details": "rat plasma 30 minutes after oral administration; 6.0 mg/mL suspension in 0.5% methylcellulose, 5.0 mL/kg", "protocol": "(Measurement of Activated Blood Coagulation Factor X Inhibitory Activity and Prothrombin Time (PT))\nMale Wistar rats aged 6-9 weeks (SLC) fasted overnight were used. Test substances were suspended in 0.5% methylcellulose solution at the concentration of 6.0 mg/mL. Then 5.0 mL/kg of those was orally administrated into the rats. Then, 30 minutes before and after the administration of the test substances, citrated (1:10 dilution, 3.13% sodium citrate) bloods were collected from the jugular vein. Plasma samples were obtained by centrifugation. Effects of test substances on activated blood coagulation factor X and prothrombin time (PT) were investigated using the plasma samples according to the following procedures.\n1) Activated Blood Coagulation Factor X Inhibitory Activity\n2.5 μL of plasma sample, 200 μL of 100 mM tris-200 mM NaCl buffer (pH 8.4) and 10 μL of 0.06 U/mL human activated blood coagulation factor X (Calbiochem) in gelatin-glycine buffer were poured into 96 well microplate. […] The reaction was terminated with the addition of 50 μL of 60% acetic acid and absorbance (405 nm) was measured by a microplate reader (SPECTRAmax250, Molecular Devices). […] The inhibitory % of plasma sample was calculated from absorbance of the control as 100% and this value was used as the index of anti-activated blood coagulation factor X activity in plasma."}, "[5]": {"assay": "Saturated water solubility", "type": "physicochemical", "details": "for solubility: thermodynamic from solid, water", "protocol": "(Saturated Water Solubility) Approximately 40 mg of test substances is placed in a vessel, and approximately 15 mL of water is added thereto to suspend. The suspensions are warmed at 37° C. with stirring, and approximately 1 mL of aliquots is collected with time. Each of aliquots is filtered through a 0.45 μm filter. Thereafter, 500 μL is taken accurately from the filtrate, and 500 μL of a mixed solvent of water/acetonitrile (1/1) is added thereto to prepare a test solution. Five μL of the test solution is analyzed by a high performance liquid chromatography method according to the following conditions. Among water solubilities at each point of test solutions, the highest concentration is estimated as a saturated water solubility. HPLC Condition: • Detection wavelength; 225 nm • Column; Inertsil ODS-3, 5 μm, 4.6 mm I.D.×250 mm • Column temperature; 30° C. • Mobile phase; • 0.02 mol/L phosphate buffer (pH 3.0): acetonitrile mixed solvent • 0→30 min; 42:58 • Flow rate; […] • Measurement time; 30 min"}, "prothrombin time (PT)": {"test_system": "prothrombin time (PT)", "assay": "Prothrombin time (PT) in plasma of orally dosed rats", "type": "in vivo, Male Wistar rats", "details": "PT after administration / before administration; rat plasma, oral, 6.0 mg/mL suspension, 5.0 mL/kg, 30 minutes", "protocol": "(Measurement of Activated Blood Coagulation Factor X Inhibitory Activity and Prothrombin Time (PT)) Male Wistar rats aged 6-9 weeks (SLC) fasted overnight were used. Test substances were suspended in 0.5% methylcellulose solution at the concentration of 6.0 mg/mL. Then 5.0 mL/kg of those was orally administrated into the rats. Then, 30 minutes before and after the administration of the test substances, citrated (1:10 dilution, 3.13% sodium citrate) bloods were collected from the jugular vein. Plasma samples were obtained by centrifugation. Effects of test substances on activated blood coagulation factor X and prothrombin time (PT) were investigated using the plasma samples according to the following procedures. 2) Prothrombin Time (PT). Fifty μL of plasma was put in the process tube and then incubated at 37° C. One minute later, 100 mu L of plasma PT reagent (Boehringer Mannheim) prewarmed at 37° C. was added into the mixture. PT was measured with a coagulometer (ST4, Boehringer Mannheim). The ratio of PT at each time point after administration of the test substance to that of before administration was used as the index of anticoagulation activity."}, "[6]": {"target": "T1, activated blood coagulation factor X", "assay": "Inhibitory activity against activated blood coagulation factor X (statement, no method given)", "type": "biochemical"}}, "note": "Read-outs that look alike come from different tables or passages of the source."}
{"compound": "CCCCOC(=O)COc1cc(-c2ccccc2S(C)(=O)=O)ccc1CCNS(=O)(=O)c1cc(C(=N)NO)ccc1O.Cl", "note": "[Example 1, n-butyl[4-[2-[2-hydroxy-5-(N-hydroxycarbamimidoyl)benzenesulfonylamino]ethyl]-2′-methanesulfonylbiphenyl-3-yloxy]acetate hydrochloride]", "values": [{"measurement": "Residual Rate (%)", "setting": "[1]", "result": 99.0, "unit": "%"}, {"measurement": "Storage stability (in words)", "setting": "[1]; listed as crystalline form B", "result": "good storage stabilities"}, {"measurement": "Oral bioavailability (in words)", "setting": "[2]", "result": "good oral bioavailability"}, {"measurement": "Stability of crystalline form on storage (in words)", "setting": "[3]", "result": "without changing its crystalline form"}, {"measurement": "inhibition at 6000 µg/mL (stock)", "setting": "[4]", "result": 58.2, "unit": "%"}, {"measurement": "Water solubility (in words)", "setting": "[5]", "result": "highly water-soluble"}, {"measurement": "solubility", "setting": "[5]; 37° C., highest concentration over time, read-out: Saturated water solubility", "result": 1600, "unit": "µg/mL"}, {"measurement": "Ratio of PT", "setting": "prothrombin time (PT)", "result": 1.50}]}
{"compound": "CCCCOC(=O)COc1cc(-c2ccccc2S(C)(=O)=O)ccc1CCNS(=O)(=O)c1cc(C(=N)NO)ccc1O.Cl", "note": "[Reference Example 1, n-butyl[4-[2-[2-hydroxy-5-(N-hydroxycarbamimidoyl)benzenesulfonylamino]ethyl]-2′-methanesulfonylbiphenyl-3-yloxy]acetate hydrochloride]", "values": [{"measurement": "Residual Rate (%)", "setting": "[1]", "result": 96.8, "unit": "%"}, {"measurement": "Storage stability (in words)", "setting": "[1]; listed as crystalline form A", "result": "unsatisfactory stabilities"}]}
{"compound": "CCCCOC(=O)COc1cc(-c2ccccc2S(C)(=O)=O)ccc1CCNS(=O)(=O)c1cc(C(=N)NO)ccc1O.Cl.O", "note": "[Reference Example 2, n-butyl[4-[2-[2-hydroxy-5-(N-hydroxy-carbamimidoyl)benzenesulfonylamino]ethyl]-2′-methanesulfonylbiphenyl-3-yloxy]acetate hydrochloride monohydrate]", "values": [{"measurement": "Water solubility (in words)", "setting": "[5]", "result": "poor water solubility"}, {"measurement": "solubility", "setting": "[5]; 37 °C", "result": 270, "unit": "µg/mL"}]}
{"compound": "CCCCOC(=O)COc1cc(-c2ccccc2S(C)(=O)=O)ccc1CCNS(=O)(=O)c1cc(C(=N)NO)ccc1O.Cl", "note": "[formula (I), n-Butyl[4-[2-[2-hydroxy-5-(N-hydroxycarbamimidoyl)benzenesulfontylamino]ethyl]-2′-methanesulfonylbiphenyl-3-yloxy]acetate hydrochloride]", "values": [{"measurement": "Inhibitory activities against activated blood coagulation factor X (in words)", "setting": "[6]", "result": "excellent inhibitory activities"}]}
